Assay results taken from ChEMBL document CHEMBL1146330, “Acyclic, orally bioavailable ketone-based cathepsin K inhibitors” (Bioorg Med Chem Lett, 2007).
Converted amounts (≈) assume the structure as drawn.

Experiments:
Cathepsin K = biological target: T1, Cathepsin K (Homo sapiens, UniProt P43235); experiment: Inhibition of human recombinant cathepsin K
T1 sequence (P43235 whole entry): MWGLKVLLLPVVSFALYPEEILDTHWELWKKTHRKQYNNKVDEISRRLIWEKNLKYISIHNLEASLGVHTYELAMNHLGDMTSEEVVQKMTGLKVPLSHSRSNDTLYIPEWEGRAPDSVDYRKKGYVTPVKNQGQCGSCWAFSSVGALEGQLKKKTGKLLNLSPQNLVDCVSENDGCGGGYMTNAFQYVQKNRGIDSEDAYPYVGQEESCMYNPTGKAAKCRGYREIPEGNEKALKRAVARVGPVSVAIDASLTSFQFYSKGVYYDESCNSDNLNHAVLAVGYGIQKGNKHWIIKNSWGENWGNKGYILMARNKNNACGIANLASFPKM

Cathepsin B = Cathepsin B (Homo sapiens, UniProt P07858); experiment: Inhibition of human recombinant cathepsin B
[1] = Inhibition of human recombinant cathepsin L
Cathepsin S = Cathepsin S (Homo sapiens, UniProt P25774); experiment: Inhibition of human recombinant cathepsin S
Sequence of Cathepsin S (P25774 whole entry): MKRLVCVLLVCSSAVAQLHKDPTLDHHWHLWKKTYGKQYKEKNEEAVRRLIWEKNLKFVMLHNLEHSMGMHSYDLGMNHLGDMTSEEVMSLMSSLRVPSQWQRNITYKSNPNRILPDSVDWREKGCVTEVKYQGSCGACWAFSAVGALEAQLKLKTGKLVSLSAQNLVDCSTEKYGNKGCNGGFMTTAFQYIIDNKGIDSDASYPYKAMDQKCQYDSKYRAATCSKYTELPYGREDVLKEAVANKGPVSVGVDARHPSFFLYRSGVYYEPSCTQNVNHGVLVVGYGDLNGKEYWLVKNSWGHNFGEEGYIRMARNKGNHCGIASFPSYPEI

Homo sapiens = species: Homo sapiens; experiment: Selectivity for human recombinant cathepsin K over human recombinant cathepsin L
[2] = Apparent permeability across MDCK cells; type: ADME, cell-based, Canis lupus familiaris; conditions: dog
[3] = Solubility in fasted state simulated intestinal fluid at pH 6.8; type: physicochemical
[4] = Terminal elimination half life in iv dosed Han Wistar rat; type: ADME, organism-based; conditions: in vivo
[5] = Total clearance in Han Wistar rat; type: ADME, organism-based; conditions: in vivo
[6] = Volume of distribution at steady state in Han Wistar rat; type: ADME, organism-based; conditions: in vivo, read-out: Vdss
[7] = Oral bioavailability in Han Wistar rat; type: ADME, organism-based; conditions: in vivo

SMILES | IC50 (Cathepsin K) | IC50 (Cathepsin B) | IC50 [1] | IC50 (Cathepsin S) | Ratio IC50 (Homo sapiens) | Papp [2] | solubility [3] | half-life [4] | clearance [5] | Vd [6] | bioavailability [7]
CCCC[C@H](NC(=O)O[C@H](Cn1cnc(-c2ccc(C(F)(F)F)cc2)c1)C(C)(C)C)C(=O)CNS(=O)(=O)c1ccccn1 | 6.4 nM | 130 nM | 1100 nM | 10 nM | > 100 | 19 ×10⁻⁶ cm/s | 40 µg/mL (≈ 64.1 µM) | 67 min | 47 mL/min/kg | 1.6 L/kg | 22%
CCCC[C@H](NC(=O)O[C@H](Cn1ccc(-c2cccnc2)n1)C(C)(C)C)C(=O)CNS(=O)(=O)c1ccccn1 | 5.5 nM | 79 nM | 100 nM | 15 nM |  |  |  |  |  |  | 
C[C@H](NC(=O)O[C@H](Cn1ccc(-c2ccc(C(F)(F)F)cc2)n1)C(C)(C)C)C(=O)CNS(=O)(=O)c1ccccn1 | 18 nM | 310 nM | > 250 nM | 64 nM |  | 30 ×10⁻⁶ cm/s | 97 µg/mL (≈ 167 µM) | 32 min | 82 mL/min/kg | 1.8 L/kg | 27%
CC(C)C[C@H](NC(=O)c1cc2ccccc2o1)C(=O)N[C@@H](C)C(=O)CNS(=O)(=O)c1ccccn1 | 7.5 nM | 59 nM |  | 20 nM |  |  |  | 33 min |  |  | 
CCCC[C@H](NC(=O)O[C@H](Cn1ccc(-c2ccc(C(F)(F)F)cc2)n1)C(C)(C)C)C(=O)C(=O)Nc1ccn[nH]1 | 0.072 nM | 20 nM | 8.7 nM | 0.21 nM |  | 9.1 ×10⁻⁶ cm/s | 110 µg/mL (≈ 196 µM) | 320 min |  | 1.6 L/kg | 42%
CCCC[C@H](NC(=O)O[C@H](Cn1ccc(C(F)(F)F)n1)C(C)(C)C)C(=O)CNS(=O)(=O)c1ccccn1 | 32 nM |  |  |  |  | 34 ×10⁻⁶ cm/s |  | 24 min | 21 mL/min/kg | 0.46 L/kg | 20%
CCCC[C@H](NC(=O)O[C@H](Cn1ccc(-c2ccncc2)n1)C(C)(C)C)C(=O)CNS(=O)(=O)c1ccccn1 | 3.8 nM | 13 nM | 38 nM | 11 nM |  | 6.8 ×10⁻⁶ cm/s | 60 µg/mL (≈ 108 µM) | 120 min | 16 mL/min/kg | 1.7 L/kg | 100%
CCCC[C@H](NC(=O)O[C@H](Cn1cnc2cc(Cl)c(Cl)cc21)C(C)(C)C)C(=O)CNS(=O)(=O)c1ccccn1 | 3.2 nM | 40 nM | 16 nM | 10 nM |  | 15 ×10⁻⁶ cm/s | 28 µg/mL (≈ 46.8 µM) | 46 min | 31 mL/min/kg | 1.3 L/kg | 32%

Now from value to compound:

IC50 (Cathepsin K) | IC50 (Cathepsin B) | IC50 [1] | IC50 (Cathepsin S) | Ratio IC50 (Homo sapiens) | Papp [2] | solubility [3] | half-life [4] | clearance [5] | Vd [6] | bioavailability [7] | SMILES
7.6 nM | 72 nM | 7100 nM | 26 nM | > 100 |  |  |  |  |  |  | CCCC[C@H](NC(=O)O[C@H](Cn1cc(-c2ccc(C(F)(F)F)cc2)cn1)C(C)(C)C)C(=O)CNS(=O)(=O)c1ccccn1
1.4 nM | 71 nM | 38 nM | 7.9 nM |  |  |  |  |  |  |  | C[C@H](NC(=O)O[C@H](Cn1cnc2cc(Cl)c(Cl)cc21)C(C)(C)C)C(=O)CNS(=O)(=O)c1ccccn1
2.1 nM | 68 nM | > 250 nM | 19 nM | > 100 |  |  |  |  |  |  | CCCC[C@H](NC(=O)O[C@H](Cn1ccc(-c2ccc(C(F)(F)F)cc2)n1)C(C)(C)C)C(=O)CNc1cccc(F)n1
300 nM |  |  |  |  |  |  |  |  |  |  | C[C@H](NC(=O)O[C@H](Cn1ccc(C(F)(F)F)n1)C(C)(C)C)C(=O)CNS(=O)(=O)c1ccccn1
65 nM |  |  |  |  |  |  |  |  |  |  | CC(C)(C)[C@@H](Cn1ccc(-c2ccc(C(F)(F)F)cc2)n1)OC(=O)NCC(=O)CNS(=O)(=O)c1ccccn1
4 nM | 170 nM | > 250 nM | 35 nM |  | 16 ×10⁻⁶ cm/s | 41 µg/mL (≈ 65.7 µM) | 120 min | 26 mL/min/kg | 1.8 L/kg | 21% | CCCC[C@H](NC(=O)O[C@H](Cn1ccc(-c2ccc(C(F)(F)F)cc2)n1)C(C)(C)C)C(=O)CNS(=O)(=O)c1ccccn1
> 250 nM |  |  |  |  |  |  |  |  |  |  | CCCC[C@H](NC(=O)O[C@H](Cn1ccc(-c2ccc(C(F)(F)F)cc2)n1)C(C)(C)C)C(=O)CNC(=O)N1CCOCC1
